What was measured:
NF-κB signaling pathway = assay: Cell-based dual luciferase NF-κB reporter assay (HEK293 cells, TNF stimulated); conditions: Homo sapiens, HEK293
Method: Dual-luciferase reporter assay was designed to find inhibitors of HOIP affecting NF-κB signaling pathway. The assay was performed in HEK293 cells which were transfected with plasmids coding for Firefly and NanoLuc luciferases. The NanoLuc luciferase plasmid contains NF-κB response element which determines its expression.
The assay was run following standard dual-luciferase protocols. The assay consists of a few steps: • compounds were dispensed at a concentration range: 100-0.005 μM with a final DMSO concentration of 1% of final volume (25 μL); • cells were stimulated after 30 min with 2.5 ng/mL TNF; and • after 6 h Firefly and NanoLuc luciferase activities are determined according to the procedure described by the manufacturer of Nano-Glo Dual-Luciferase Reporter Assay System.

[1] = target: T1, human E3 ubiquitin-protein ligase RNF31 (HOIP) (Homo sapiens, UniProt Q96EP0); assay: Cell-free HTRF-based HOIP inhibition assay; type: biochemical
T1 sequence (Q96EP0 695-1072 limits assumed): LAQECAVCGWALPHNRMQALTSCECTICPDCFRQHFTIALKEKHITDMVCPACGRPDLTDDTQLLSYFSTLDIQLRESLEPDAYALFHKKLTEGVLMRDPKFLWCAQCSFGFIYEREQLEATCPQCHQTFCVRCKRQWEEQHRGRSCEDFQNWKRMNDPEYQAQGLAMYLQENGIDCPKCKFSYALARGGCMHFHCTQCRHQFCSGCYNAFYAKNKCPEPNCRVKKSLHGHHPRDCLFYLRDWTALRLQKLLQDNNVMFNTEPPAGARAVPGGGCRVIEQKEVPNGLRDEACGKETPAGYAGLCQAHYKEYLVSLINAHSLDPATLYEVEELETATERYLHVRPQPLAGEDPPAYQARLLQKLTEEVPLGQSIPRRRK
Method in brief: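 HTRF read (ex 337 nm; em 665 and 620 nm) after a 2.5 h, 25° C. ubiquitination step started by adding E2 plus substrates. Before that, E. coli-expressed human HOIP fragment and E1 were incubated 1 h at 25° C. with compound at 100-0.005 μM, 1% DMSO final.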

[2] = test system: bladder carcinoma RT4 cell line; assay: TNF-α-induced cytotoxicity assay (CellTiter-Glo viability); type: cell-based; conditions: Homo sapiens, RT-4, 72 h
Method in brief: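 RT4 bladder carcinoma cells, 1000 per well, stimulated with 1.25 ng/mL TNFα together with compound for 72 h at 37° C., 5% CO2. Viability read by CellTiter-Glo luminescence, proportional to cellular ATP, as a measure of HOIP-dependent cytotoxicity.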

SMILES | IC50 (NF-κB signaling pathway) [nM] | IC50 [1] [nM] | IC50 [2] [nM]
COc1ccc(S(=N)(=O)/C=C/CNC(=O)c2cc3c([nH]c2=O)CCN(C(=O)OC(C)(C)C)C3)cc1F (stereo not drawn) [Example 152, tert-butyl 3-{[(2E)-3-[(3-fluoro-4-methoxyphenyl)(imino)oxo-λ^6-sulfanyl]prop-2-en-1-yl]carbamoyl}-2-oxo-1,2,5,6,7,8-hexahydro-1,6-naphthyridine-6-carboxylate] | ≤ 10000 | ≤ 100 | ≤ 10000
O=C(NC/C=C/S(=O)(=O)c1ccc(Cl)cc1)c1cc2c([nH]c1=O)CCCCC2 [Example 36, N-[(2E)-3-(4-chlorobenzenesulfonyl)prop-2-en-1-yl]-2-oxo-1H,2H,5H,6H,7H,8H,9H-cyclohepta[b]pyridine-3-carboxamide] | ≤ 100000 | ≤ 1000 | ≤ 10000
N#Cc1ccc(S(=N)(=O)/C=C/CNC(=O)c2cc3c([nH]c2=O)CCCC3)cc1 (stereo not drawn) [Example 136, N-[(2E)-3-[(4-cyanophenyl)(imino)oxo-λ^6-sulfanyl]prop-2-en-1-yl]-2-oxo-1,2,5,6,7,8-hexahydroquinoline-3-carboxamide] | ≤ 1000 | ≤ 100 | ≤ 10000
COc1ccc(S(=N)(=O)/C=C/CNC(=O)c2cc3c([nH]c2=O)CCCC3)cc1C (stereo not drawn) [Example 137, N-[(2E)-3-[imino(4-methoxy-3-methylphenyl)oxo-λ^6-sulfanyl]prop-2-en-1-yl]-2-oxo-1,2,5,6,7,8-hexahydroquinoline-3-carboxamide] | ≤ 1000 | ≤ 1000 | ≤ 1000
O=C(NC/C=C/S(=O)(=O)c1ccccc1)c1cc2c([nH]c1=O)CCN(C(=O)OCC1CC1)C2 [Example 69, cyclopropylmethyl 3-{[(2E)-3-(benzenesulfonyl)prop-2-en-1-yl]carbamoyl}-2-oxo-1,2,5,6,7,8-hexahydro-1,6-naphthyridine-6-carboxylate] | ≤ 1000 | ≤ 100 | ≤ 1000
O=C(NC/C=C/S(=O)(=O)c1ccccc1)c1cc2c([nH]c1=O)CCN(C(=O)c1cnn(-c3ccccc3)n1)C2 [Example 112, N-[(2E)-3-(benzenesulfonyl)prop-2-en-1-yl]-2-oxo-6-(2-phenyl-2H-1,2,3-triazole-4-carbonyl)-1,2,5,6,7,8-hexahydro-1,6-naphthyridine-3-carboxamide] | ≤ 10000 | ≤ 1000 | ≤ 10000
COCC(C)OC(=O)N1CCc2[nH]c(=O)c(C(=O)NC/C=C/S(=O)(=O)c3ccc(Cl)cc3)cc2C1 (stereo not drawn) [Example 94, 1-methoxypropan-2-yl 3-{[(2E)-3-(4-chlorobenzenesulfonyl)prop-2-en-1-yl]carbamoyl}-2-oxo-1,2,5,6,7,8-hexahydro-1,6-naphthyridine-6-carboxylate] | ≤ 1000 | ≤ 100 | ≤ 10000
O=C(NC/C=C/S(=O)(=O)c1ccccc1)c1cc2c([nH]c1=O)CCN(Cc1cccnc1)C2 [Example 104, N-[(2E)-3-(benzenesulfonyl)prop-2-en-1-yl]-2-oxo-6-[(pyridin-3-yl)methyl]-1,2,5,6,7,8-hexahydro-1,6-naphthyridine-3-carboxamide] | ≤ 10000 | ≤ 1000 | ≤ 10000
N=S(=O)(/C=C/CNC(=O)c1cc2c([nH]c1=O)CCN(C(=O)OCCF)C2)c1ccccc1 (stereo not drawn) [Example 181, 2-fluoroethyl 3-{[(2E)-3-[imino(oxo)phenyl-λ^6-sulfanyl]prop-2-en-1-yl]carbamoyl}-2-oxo-1,2,5,6,7,8-hexahydro-1,6-naphthyridine-6-carboxylate] | ≤ 100000 | ≤ 1000 | ≤ 10000
O=C(NC/C=C/S(=O)(=O)c1ccc(Cl)cc1)c1cc2c([nH]c1=O)CCN(Cc1ccccc1)C2 [Example 29, 6-benzyl-N-[(2E)-3-(4-chlorobenzenesulfonyl)prop-2-en-1-yl]-2-oxo-1,2,5,6,7,8-hexahydro-1,6-naphthyridine-3-carboxamide] | ≤ 1000 | ≤ 100 | ≤ 1000
